This note sets out measurements from ChEMBL document CHEMBL5154838, “A pH-Dependent rhodamine fluorophore with antiproliferative activity of bladder cancer in Vitro/Vivo and apoptosis mechanism” (Eur J Med Chem, 2022).

Calls of active or inactive are those of the source. The rule behind the calls is not given here.

Series [1] deals with EJ. Briefly: Antiproliferative activity against human EJ cells after 24 hrs by CCK-8 assay. Format: functional, cell-based. Background: Formazan colour is commonly taken as a measure of viable cells.
Series [2] relates to EJ. In words: Antiproliferative activity against human EJ cells assessed as inhibition of colony formation at 8.34 uM measured by colony formation assay. Format: functional, cell-based.
Series [3] can be described thus: Fluorescence response in PBS solution at pH 3 to 9 assessed as higher sensitivity to fluorescence intensity at 2 uM. Format: physicochemical. Particulars: buffer, pH 3, 2 µM.
Series [4] deals with EJ. In words: Antitumor activity against human EJ cells xenografted in male nude mouse assessed as decrease in Ki-67 expression at 22.35 uM and measured at pH 6.5 by immunohistochemistry analysis. Format: functional, cell-based. (Xenograft models place foreign cells or tissue in a host animal.)
Series [5] relates to EJ. In words: Induction of apoptosis in human EJ cells at 22.35 uM assessed as increase in Bax expression measured by Western blotting assay. Format: functional, cell-based. (Immunoblotting shows a protein as a band on a membrane.)
The test system of series [6] is EJ. In words: Antiproliferative activity against human EJ cells assessed as inhibition of colony formation at 22.35 uM measured by colony formation assay. Format: functional, cell-based.
The test system of series [7] is EJ. Briefly: Antitumor activity against human EJ cells xenografted in male nude mouse assessed as decrease in Ki-67 expression at 22.35 uM and measured at pH 7.5 by immunohistochemistry analysis. Format: functional, cell-based.
Series [8] deals with EJ. Briefly: Antitumor activity against human EJ cells xenografted in male nude mouse assessed as increase in cleaved caspase-9 expression at 22.35 uM and measured by Western blotting analysis. Format: functional, cell-based.
The test system of series [9] is EJ. Briefly: Antitumor activity against human EJ cells xenografted in male nude mouse assessed as reduction in tumor volume at 22.35 uM and measured at pH 5.5. Format: functional, cell-based.
Series [10] has as its system EJ. Briefly: Antitumor activity against human EJ cells xenografted in male nude mouse assessed as decrease in PCNA expression at 22.35 uM and measured at pH 5.5 by immunohistochemistry analysis. Format: functional, cell-based.
The subject of series [11] is EJ. Briefly: Antitumor activity against human EJ cells xenografted in male nude mouse assessed as increase in cleaved caspase-3 expression at 22.35 uM and measured by Western blotting analysis. Format: functional, cell-based.
Series [12] relates to EJ. Briefly: Antitumor activity against human EJ cells xenografted in male nude mouse assessed as decrease in PCNA expression at 22.35 uM and measured at pH 6.5 by immunohistochemistry analysis. Format: functional, cell-based.
Series [13] relates to EJ. Briefly: Antitumor activity against human EJ cells xenografted in male nude mouse assessed as reduction in tumor weight at 22.35 uM and measured at pH 6.5. Format: functional, cell-based.
For series [14], the system named is EJ. Briefly: Induction of apoptosis in human EJ cells at 22.35 uM assessed as increase in apoptosis rate measured by Annexin V-PE/7-AAD-based flow cytometry assay. Format: functional, cell-based.
Series [15] has as its system EJ. Briefly: Antiproliferative activity against human EJ cells at pH 7.5 assessed as cell viability at 22.35 uM after 24 hrs by CCK-8 assay relative to control. Format: functional. The note with it: read-out: Activity.
Series [16] deals with EJ. Briefly: Antiproliferative activity against human EJ cells at pH 6.5 assessed as LDH levels at 22.35 uM after 24 hrs relative to control. Format: functional.
Series [17] concerns EJ. Briefly: Antiproliferative activity against human EJ cells at pH 7.5 assessed as LDH levels at 22.35 uM after 24 hrs relative to control. Format: functional.
Series [18] has as its system EJ. In words: Antitumor activity against human EJ cells xenografted in male nude mouse assessed as reduction in tumor weight at 22.35 uM and measured at pH 5.5. Format: functional, cell-based.
Series [19] has as its system EJ. In words: Antitumor activity against human EJ cells xenografted in male nude mouse assessed as decrease in Ki-67 expression at 22.35 uM and measured at pH 5.5 by immunohistochemistry analysis. Format: functional, cell-based.
Series [20] concerns EJ. Briefly: Antitumor activity against human EJ cells xenografted in male nude mouse assessed as reduction in tumor weight at 22.35 uM and measured at pH 7.5. Format: functional, cell-based.
The test system of series [21] is EJ. In words: Antiproliferative activity against human EJ cells at pH 6.5 assessed as cell viability at 22.35 uM after 24 hrs by CCK-8 assay relative to control. Format: functional. The note with it: read-out: Activity.
Series [22] relates to EJ. In words: Antitumor activity against human EJ cells xenografted in male nude mouse assessed as reduction in tumor volume at 22.35 uM and measured at pH 8.5. Format: functional, cell-based.
Series [23] concerns EJ. Briefly: Induction of apoptosis in human EJ cells at 22.35 uM assessed as increase in cleaved caspase-3 expression measured by Western blotting assay. Format: functional, cell-based.
Series [24] concerns EJ. In words: Antitumor activity against human EJ cells xenografted in male nude mouse assessed as reduction in tumor volume at 22.35 uM and measured at pH 6.5. Format: functional, cell-based.
Series [25] relates to EJ. Briefly: Antitumor activity against human EJ cells xenografted in male nude mouse assessed as decrease in PCNA expression at 22.35 uM and measured at pH 8.5 by immunohistochemistry analysis. Format: functional, cell-based.
Series [26] relates to EJ. Briefly: Antitumor activity against human EJ cells xenografted in male nude mouse assessed as decrease in Ki-67 expression at 22.35 uM and measured at pH 8.5 by immunohistochemistry analysis. Format: functional, cell-based.
A short description of series [27]: Antiproliferative activity against human SV-HUC-1 cells after 24 hrs by CCK-8 assay. The note with it: SV-HUC1, 24 h. Format: functional, cell-based.
For series [28], the system named is EJ. Briefly: Antitumor activity against human EJ cells xenografted in male nude mouse assessed as reduction in tumor volume at 22.35 uM and measured at pH 7.5. Format: functional, cell-based.
The subject of series [29] is EJ. Briefly: Antitumor activity against human EJ cells xenografted in male nude mouse assessed as reduction in tumor weight at 22.35 uM and measured at pH 8.5. Format: functional, cell-based.
In series [30] the test system is EJ. In words: Antitumor activity against human EJ cells xenografted in male nude mouse assessed as increase in Bax expression at 22.35 uM and measured by Western blotting analysis. Format: functional, cell-based.
Series [31] has as its system EJ. Briefly: Antitumor activity against human EJ cells xenografted in male nude mouse assessed as decrease in PCNA expression at 22.35 uM and measured at pH 7.5 by immunohistochemistry analysis. Format: functional, cell-based.
The subject of series [32] is EJ. Briefly: Induction of apoptosis in human EJ cells at 22.35 uM assessed as increase in cleaved caspase-9 expression measured by Western blotting assay. Format: functional, cell-based.

Compound `CCNc1cc2c(cc1C)C1(c3cc(C)c(NCC)cc3O2)c2ccccc2C(=O)N1c1ccn([C@@H]2O[C@H](CO)[C@@H](O)C2(F)F)c(=O)n1` registered an IC50 in the series on EJ [1] of 8.34 µM. Moreover, in the series on EJ [2], the result was Active. The outcome in series [3] was Active.
With `CCNc1cc2c(cc1C)C1(c3cc(C)c(NCC)cc3O2)c2ccccc2C(=O)N1Cc1ccccn1`, the result in the series with EJ [4], in the series on EJ [5], in the series with EJ [6], in the series on EJ [7], in the series on EJ [8] and in the series on EJ [9] was Active. Besides, the outcome with EJ [10], in the series with EJ [11], in the series with EJ [12], with EJ [13], in the series with EJ [14] and with EJ [18] was Active. In addition, the outcome in the series with EJ [19], with EJ [20], in the series on EJ [22], in the series with EJ [23], in the series with EJ [24] and in the series on EJ [25] was Active. The outcome in the series with EJ [26], in the series with EJ [28], in the series with EJ [29], in the series with EJ [30], with EJ [31] and in the series on EJ [32] was Active. Moreover, the IC50 worked out at 22.4 µM in the series with EJ [1] and 25.6 µM in [27]. The Activity result in series [3] was “Active”; with EJ [16], 42.8%; with EJ [17], 26.4%. The viability at 22.35 µM in the series with EJ [15] was determined as 83.2%; in the series with EJ [21] it was 68.4%.
As for `CCNc1cc2c(cc1C)C1(c3cc(C)c(NCC)cc3O2)c2ccccc2C(=O)N1CC1CCOCC1`, the result in series [3] was Active.
As to `CCNc1cc2c(cc1C)C1(c3cc(C)c(NCC)cc3O2)c2ccccc2C(=O)N1C1CCC1`, the outcome in series [3] was Active.
The same measure, in the same setting: in the case of `CCNc1cc2c(cc1C)C1(c3cc(C)c(NCC)cc3O2)c2ccccc2C(=O)N1CC1CCCO1` (configuration not stated) it was “Active”.

As a reminder, the IC50 is the midpoint of a concentration-inhibition curve. Low values mean greater potency in that assay, high ones weaker potency in that assay.
